Test results from patent US9149038B2, “4-amino-6-(heterocyclic)picolinates and 6-amino-2-(heterocyclic)pyrimidine-4-carboxylates and their use as herbicides” (Dow AgroSciences LLC, priority 2013, dated 2015).
Where two headings read alike, the source gives them in different places.

Experiments:
[1] = tested on: Key Broadleaf Weed and Crop Species; experiment: Post-Emergent Test II: postemergent herbicidal activity, visual rating after 14 d (Table 7); type: in vivo; conditions: post-emergence, 336 h; for pest or weed control at 35 g/ha: 35 g ai/ha; for pest or weed control at 70 g/ha: 70 g ai/ha; for pest or weed control at 140 g/ha: 140 g ai/ha
Procedure, shortened: (§1)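 Plants were raised in a greenhouse for 7-21 d and treated once at the first or second true leaf stage. Compounds, dissolved in 97:3 acetone:DMSO then diluted into an aqueous acetone/isopropanol/crop oil/Triton X-155 carrier, were applied by overhead track sprayer at 187 L/ha. After 14 d with subirrigation, injury was scored visually from 0 (none) to 100 (complete kill).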

[2] = tested on: Key Grass and Sedge Weeds as well as Grass Crops; experiment: Post-Emergent Test II: postemergent herbicidal activity, visual rating after 14 d (Table 8); type: in vivo; conditions: post-emergence, 336 h; for pest or weed control at 35 g/ha: 35 g ai/ha; for pest or weed control at 70 g/ha: 70 g ai/ha; for pest or weed control at 140 g/ha: 140 g ai/ha
Procedure, shortened: as §1

[3] = lambsquarters (Chenopodium album), read-out: Visual Growth Reduction (%) 14 Days After Application CHEAL
[4] = oilseed rape, canola (Brassica napus), read-out: Visual Growth Reduction (%) 14 Days After Application BRSNN
[5] = redroot pigweed (Amaranthus retroflexus), read-out: Visual Growth Reduction (%) 14 Days After Application AMARE
[6] = sunflower (Helianthus annuus), read-out: Visual Growth Reduction (%) 14 Days After Application HELAN
[7] = velvetleaf (Abutilon theophrasti), read-out: Visual Growth Reduction (%) 14 Days After Application ABUTH
[8] = wild poinsettia (Euphorbia heterophylla), read-out: Visual Growth Reduction (%) 14 Days After Application EPHHL
[9] = barnyardgrass (Echinochloa crus-galli), read-out: Visual Growth Reduction (%) 14 Days After Application ECHCG
[10] = giant foxtail (Setaria faberi), read-out: Visual Growth Reduction (%) 14 Days After Application SETFA
[11] = maize, corn (Zea mays), read-out: Visual Growth Reduction (%) 14 Days After Application ZEAMX
[12] = rice (Oryza sativa), read-out: Visual Growth Reduction (%) 14 Days After Application ORYSA
[13] = wheat, spring (Triticum aestivum), read-out: Visual Growth Reduction (%) 14 Days After Application TRZAS
[14] = yellow nutsedge (Cyperus esculentus), read-out: Visual Growth Reduction (%) 14 Days After Application CYPES

Nc1nc(-c2ccc3c(c2F)OC(F)(F)O3)nc(C(=O)O)c1Cl [Compound 59]
85 to 94%: pest or weed control at 70 g/ha [1, 3] | pest or weed control at 140 g/ha [1, 3] | pest or weed control at 70 g/ha [1, 4] | pest or weed control at 140 g/ha [1, 4] | pest or weed control at 70 g/ha [1, 5] | pest or weed control at 140 g/ha [2, 14]
75 to 84%: pest or weed control at 35 g/ha [1, 3] | pest or weed control at 70 g/ha [1, 6] | pest or weed control at 140 g/ha [1, 6] | pest or weed control at 35 g/ha [2, 9] | pest or weed control at 70 g/ha [2, 9]
60 to 74%: pest or weed control at 35 g/ha [1, 4] | pest or weed control at 35 g/ha [1, 6] | pest or weed control at 140 g/ha [1, 7] | pest or weed control at 70 g/ha [2, 10] | pest or weed control at 140 g/ha [2, 10] | pest or weed control at 35 g/ha [2, 11] | pest or weed control at 70 g/ha [2, 11] | pest or weed control at 140 g/ha [2, 11]
95 to 100%: pest or weed control at 140 g/ha [1, 5] | pest or weed control at 35 g/ha [1, 8] | pest or weed control at 70 g/ha [1, 8] | pest or weed control at 140 g/ha [1, 8]
45 to 59%: pest or weed control at 35 g/ha [1, 5] | pest or weed control at 35 g/ha [2, 10]
0 to 29%: pest or weed control at 35 g/ha [1, 7] | pest or weed control at 70 g/ha [1, 7] | pest or weed control at 35 g/ha [2, 12] | pest or weed control at 70 g/ha [2, 12] | pest or weed control at 140 g/ha [2, 12] | pest or weed control at 35 g/ha [2, 13] | pest or weed control at 70 g/ha [2, 13] | pest or weed control at 140 g/ha [2, 13] | pest or weed control at 35 g/ha [2, 14] | pest or weed control at 70 g/ha [2, 14]
